# Measured values from publication PMC10526854, “Shikonin and Juglone Inhibit Mycobacterium tuberculosis Low-Molecular-Weight Protein Tyrosine Phosphatase a (Mt-PTPa)” (BioTech, 2023).
# Assays:
# [1] = biological target: protein tyrosine phosphatase 1B (PTP1B); parameters: method as in PMID 34208908; conditions: in vitro; cited from earlier work
# Mt-PTPa = biological target: T1, Mt-PTPa (Mycobacterium tuberculosis, UniProt P9WIA1); assay: Mt-PTPa phosphatase activity inhibition assay (hydrolysis of p-nitrophenyl phosphate, A405); assay type: biochemical; conditions: for IC50 / Ki / inhibition of Mt-PTPa compared with vanadate: Mt-PTPa 10 µM; for IC50 / inhibition of Mt-PTPa compared with vanadate: pNPP 100 µM; for IC50: 37 °C, 10 min, compound 0-1000 µM, mean ± SD (n = 3); for Ki: Dixon plot analysis, inhibitor 0-100 µM, read-out: KI (inhibitor constant); for Ki / inhibition pattern (mechanism): pNPP 0.25-2.50 mM; for inhibition of Mt-PTPa compared with vanadate: at 25 and 50 µM; for inhibition pattern (mechanism): double-reciprocal analysis
# T1 construct: made in house; host or cells: E. coli BL21(DE3)pLysS
# [2] = test system: N-formyl-L-methionyl-L-leucyl-L-phenylalanine-induced protein tyrosine phosphorylation; parameters: method as in PMID 9175722; conditions: in neutrophils; cited from earlier work
# T1 sequence (P9WIA1 whole entry): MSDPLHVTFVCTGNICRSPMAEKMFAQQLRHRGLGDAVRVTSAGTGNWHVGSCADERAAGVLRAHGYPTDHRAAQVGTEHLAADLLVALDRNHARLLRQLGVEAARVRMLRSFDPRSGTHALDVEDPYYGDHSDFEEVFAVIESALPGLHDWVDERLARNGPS
smiles,measurement,setting,value
"C[C@H]1[C@H](C)CC[C@]2(C(=O)O)CC[C@]3(C)C(=CC[C@@H]4[C@@]5(C)CC[C@H](O)C(C)(C)[C@@H]5CC[C@]43C)[C@H]12 [ursolic acid, reference compound]",IC50,[1],8.72 µM
"Oc1cc(O)c2c(c1)O[C@H](c1cc(O)c(O)c(O)c1)[C@H](O)C2 [Epigallocatechin, epigallocatechin]",initial library screen outcome,Mt-PTPa,hits
same,IC50,Mt-PTPa,492 ± 101 µM
CC(=O)O[C@H](CC=C(C)C)C1=CC(=O)c2c(O)ccc(O)c2C1=O [acetylshikonin],reduction of protein tyrosine phosphorylation,[2],90%
"O=C1C=CC(=O)c2c(O)cccc21 [Juglone, 5-hydroxy-1,4-naphthalenedione]",Ki,Mt-PTPa,12.5 µM
same,inhibition of Mt-PTPa compared with vanadate,Mt-PTPa,comparable levels of inhibition to vanadate
same,inhibition pattern (mechanism),Mt-PTPa,non-competitive
"O=c1c(O)c(-c2cc(O)c(O)c(O)c2)oc2cc(O)cc(O)c12 [Myricetin, myricetin]",initial library screen outcome,Mt-PTPa,hits
same,IC50,Mt-PTPa,250 ± 25 µM
"O=C(/C=C/c1ccc(O)c(O)c1)O[C@H](Cc1ccc(O)c(O)c1)C(=O)O [Rosmarinic Acid, rosmarinic acid]",initial library screen outcome,Mt-PTPa,hits
same,IC50,Mt-PTPa,900 ± 132 µM
"CC(C)=CC[C@@H](O)C1=CC(=O)c2c(O)ccc(O)c2C1=O [Shikonin, 5,8-dihydroxy-2-[(1R)-1-hydroxy-4-methyl-3-pentenyl]-1,4-naphthoquinone]",initial library screen outcome,Mt-PTPa,hits
same,Ki,Mt-PTPa,8.5 µM
same,IC50,Mt-PTPa,33 ± 7 µM
same,inhibition of Mt-PTPa compared with vanadate,Mt-PTPa,comparable levels of inhibition to vanadate
same,inhibition pattern (mechanism),Mt-PTPa,non-competitive
same,IC50,[1],15.5 µM
